What was measured:
Assay type in all cases: in vivo
[1] = tested on: barnyardgrass (Echinochloa crus-galli); assay: Test A pre-/postemergence plant response
Summary of the method: (§1)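 Ratings run 0–100 (100 = complete control), assigned visually against untreated controls roughly 10 days after treatment in a greenhouse. Compounds, formulated in non-phytotoxic solvent containing surfactant, were applied as a soil-directed preemergence spray and concurrently postemergence to one- to two-leaf plants 2–10 cm tall.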

[2] = tested on: corn (Zea mays); assay: Test A pre-/postemergence plant response
Summary of the method: as §1

[3] = tested on: giant foxtail (Setaria faberi); assay: Test A pre-/postemergence plant response
Summary of the method: as §1

[4] = tested on: large crabgrass (Digitaria sanguinalis); assay: Test A pre-/postemergence plant response
Summary of the method: as §1

[5] = tested on: morningglory (Ipomoea coccinea); assay: Test A pre-/postemergence plant response
Summary of the method: as §1

[6] = tested on: pigweed (Amaranthus retroflexus); assay: Test A pre-/postemergence plant response
Summary of the method: as §1

[7] = tested on: velvetleaf (Abutilon theophrasti); assay: Test A pre-/postemergence plant response
Summary of the method: as §1

[8] = tested on: wheat (Triticum aestivum); assay: Test A pre-/postemergence plant response
Summary of the method: as §1

[9] = tested on: bermudagrass (Cynodon dactylon); assay: Test B pre-/postemergence plant response
Summary of the method: (§2)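 Visual scoring from 0 (no effect) to 100 (complete control) against untreated controls was done 13 to 15 days after greenhouse treatment. Chemicals were formulated in a surfactant-containing non-phytotoxic solvent and applied to soil preemergence or to 1- to 4-leaf (2-18 cm) plants postemergence.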

[10] = tested on: cocklebur (Xanthium strumarium); assay: Test B pre-/postemergence plant response
Summary of the method: as §2

[11] = tested on: yellow nutsedge (Cyperus esculentus); assay: Test B pre-/postemergence plant response
Summary of the method: as §2

[12] = tested on: chickweed (Stellaria media); assay: Test B postemergence plant response; conditions: for Plant response rating, Chickweed: Postemergence
Summary of the method: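 Visual injury score from 0 (none) to 100 (complete control) versus controls, taken 13 to 15 days after treatment in the greenhouse; chemicals applied postemergence, as formulated, to plants of 1- to 4-leaf stage (2 to 18 cm tall); dash denotes no test result.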

[13] = Postemergence, 125 g ai/ha, 0 to 100 scale, 0 no effect, 100 complete control
[14] = Postemergence, 500 g ai/ha, 0 to 100 scale, 0 no effect, 100 complete control
[15] = Preemergence, 125 g ai/ha, 0 to 100 scale (0 no effect, 100 complete control)
[16] = Preemergence, 500 g ai/ha, 0 to 100 scale (0 no effect, 100 complete control)
[17] = Postemergence, 31 g ai/ha, scale 0 to 100, 0 no effect, 100 complete control
[18] = Postemergence, 62 g ai/ha, scale 0 to 100
[19] = Postemergence, 125 g ai/ha, scale 0 to 100
[20] = Postemergence, 250 g ai/ha, scale 0 to 100
[21] = Preemergence, 31 g ai/ha, 0 to 100 scale, 0 no effect, 100 complete control
[22] = Preemergence, 62 g ai/ha, scale 0 to 100
[23] = Preemergence, 125 g ai/ha, scale 0 to 100
[24] = Preemergence, 250 g ai/ha, scale 0 to 100
[25] = Postemergence, 31 g ai/ha, 0 to 100 scale (0 no effect, 100 complete control)
[26] = Preemergence, 31 g ai/ha, 0 to 100 scale, 0 is no effect, 100 is complete control
[27] = 8 g ai/ha, postemergence, 0-100 scale
[28] = Postemergence, 16 g ai/ha, scale 0 to 100
[29] = Postemergence, 31 g ai/ha, scale 0 to 100
[30] = Postemergence, 62 g ai/ha, scale 0 to 100, 0 no effect, 100 complete control
[31] = Preemergence, 8 g ai/ha, scale 0 to 100 (0 no effect, 100 complete control)
[32] = Preemergence, 31 g ai/ha, scale 0 to 100 (0 no effect, 100 complete control)
[33] = Preemergence, 62 g ai/ha, 0 to 100 scale, 0 no effect, 100 complete control
[34] = Preemergence, 16 g ai/ha, scale 0 to 100

4-[3-(4-chlorophenyl)-5-methyl-1H-pyrazol-3-yl]-5-hydroxy-2-methyl-3(2H)-pyridazinone [Compound 3]
90: Plant response rating, Barnyardgrass [1, 15] | Plant response rating, Corn [2, 13] | Plant response rating, Corn [2, 16] | Plant response rating, Wheat [8, 14] | Plant response rating, Wheat [8, 16]
70: Plant response rating, Wheat [8, 13] | Plant response rating, Wheat [8, 15]
30: Plant response rating, Bermudagrass [9, 21]
50: Plant response rating, Morningglory [5, 13] | Plant response rating, Velvetleaf [7, 14]
0: Plant response rating, Morningglory [5, 15] | Plant response rating, Morningglory [5, 16] | Plant response rating, Pigweed [6, 13] | Plant response rating, Pigweed [6, 15] | Plant response rating, Pigweed [6, 16] | Plant response rating, Velvetleaf [7, 13] | Plant response rating, Velvetleaf [7, 15] | Plant response rating, Cocklebur [10, 17] | Plant response rating, Cocklebur [10, 18] | Plant response rating, Cocklebur [10, 19] | Plant response rating, Cocklebur [10, 20] | Plant response rating, Cocklebur [10, 21] | Plant response rating, Cocklebur [10, 22] | Plant response rating, Cocklebur [10, 24] | Plant response rating, Nutsedge, Yellow [11, 17] | Plant response rating, Nutsedge, Yellow [11, 18] | Plant response rating, Nutsedge, Yellow [11, 19] | Plant response rating, Nutsedge, Yellow [11, 20] | Plant response rating, Nutsedge, Yellow [11, 21] | Plant response rating, Nutsedge, Yellow [11, 22] | Plant response rating, Nutsedge, Yellow [11, 23] | Plant response rating, Nutsedge, Yellow [11, 24] | Plant response rating, Chickweed ([12]; 31 g ai/ha, scale 0 to 100, 0 no effect, 100 complete control) | Plant response rating, Chickweed ([12]; 62 g ai/ha, scale 0 to 100) | Plant response rating, Chickweed ([12]; 125 g ai/ha, scale 0 to 100) | Plant response rating, Chickweed ([12]; 250 g ai/ha, scale 0 to 100)
10: Plant response rating, Pigweed [6, 14] | Plant response rating, Velvetleaf [7, 16]
60: Plant response rating, Morningglory [5, 14]
80: Plant response rating, Corn [2, 15]
100: Plant response rating, Barnyardgrass [1, 13] | Plant response rating, Barnyardgrass [1, 14] | Plant response rating, Barnyardgrass [1, 16] | Plant response rating, Corn [2, 14] | Plant response rating, Foxtail, Giant [3, 13] | Plant response rating, Foxtail, Giant [3, 14] | Plant response rating, Foxtail, Giant [3, 15] | Plant response rating, Foxtail, Giant [3, 16] | Plant response rating, Crabgrass, Large [4, 13] | Plant response rating, Crabgrass, Large [4, 14] | Plant response rating, Crabgrass, Large [4, 15] | Plant response rating, Crabgrass, Large [4, 16] | Bermudagrass plant response rating ([9]; 250 g ai/ha, preemergence, 0-100 scale) | Plant response rating, Bermudagrass [9, 17] | Plant response rating, Bermudagrass [9, 18] | Plant response rating, Bermudagrass [9, 19] | Plant response rating, Bermudagrass [9, 20] | Plant response rating, Bermudagrass [9, 22] | Plant response rating, Bermudagrass [9, 23]

Cc1nn(C)c(=O)c(-n2nc(-c3ccc(Br)cc3)cc2C)c1O [Compound 81]
90: Plant response rating, Barnyardgrass [1, 25] | Plant response rating, Crabgrass, Large [4, 25]
80: Plant response rating, Foxtail, Giant [3, 25] | Plant response rating, Foxtail, Giant [3, 26]
40: Bermudagrass plant response rating [9, 27]
0: Plant response rating, Pigweed [6, 25] | Plant response rating, Pigweed [6, 13] | Plant response rating, Pigweed [6, 26] | Plant response rating, Pigweed [6, 15] | Plant response rating, Wheat [8, 25] | Bermudagrass plant response rating [9, 31] | Cocklebur plant response rating [10, 27] | Plant response rating, Cocklebur [10, 28] | Plant response rating, Cocklebur [10, 29] | Plant response rating, Cocklebur [10, 30] | Cocklebur plant response rating [10, 31] | Plant response rating, Cocklebur [10, 32] | Plant response rating, Cocklebur [10, 33] | Cocklebur plant response rating [10, 34] | Nutsedge, Yellow plant response rating [11, 27] | Nutsedge, Yellow plant response rating ([11]; 16 g ai/ha, postemergence, 0-100 scale) | Plant response rating, Nutsedge, Yellow [11, 29] | Plant response rating, Nutsedge, Yellow [11, 30] | Nutsedge, Yellow plant response rating [11, 31] | Plant response rating, Nutsedge, Yellow [11, 32] | Plant response rating, Nutsedge, Yellow [11, 33] | Nutsedge, Yellow plant response rating [11, 34] | Chickweed plant response rating [12, 27] | Plant response rating, Chickweed ([12]; 16 g ai/ha, scale 0 to 100) | Plant response rating, Chickweed ([12]; 31 g ai/ha, scale 0 to 100) | Plant response rating, Chickweed ([12]; 62 g ai/ha, scale 0 to 100, 0 no effect, 100 complete control)
20: Plant response rating, Wheat [8, 26]
50: Plant response rating, Corn [2, 15] | Plant response rating, Wheat [8, 15] | Bermudagrass plant response rating ([9]; Preemergence, 16 g ai/ha, scale 0 to 100 (0 no effect, 100 complete control))
30: Plant response rating, Corn [2, 25] | Plant response rating, Corn [2, 26]
95: Plant response rating, Bermudagrass [9, 28]
70: Plant response rating, Barnyardgrass [1, 26] | Plant response rating, Crabgrass, Large [4, 26] | Plant response rating, Wheat [8, 13]
100: Plant response rating, Barnyardgrass [1, 13] | Plant response rating, Barnyardgrass [1, 15] | Plant response rating, Corn [2, 13] | Plant response rating, Foxtail, Giant [3, 13] | Plant response rating, Foxtail, Giant [3, 15] | Plant response rating, Crabgrass, Large [4, 13] | Plant response rating, Crabgrass, Large [4, 15] | Plant response rating, Bermudagrass [9, 29] | Plant response rating, Bermudagrass [9, 30] | Plant response rating, Bermudagrass [9, 32] | Plant response rating, Bermudagrass [9, 33]

— US20100267561A1, “HERBICIDAL PYRIDAZINONE DERIVATIVES” (priority 2007, published 2010)
